Here are results for 3 compounds from patent US11413328B2, “Methods for treating inflammatory conditions of the lungs” (priority 2016, dated 2022).

In test [1] the test system is murine house dust mite/Freunds complete adjuvant driven model of allergic asthma. The experiment in a line: Total and differential cell counts in BALF, HDM asthma model (Example 2). To be noted: dexamethasone orally 1 mg/kg BID day 14; 48 hours post challenge. Format: in vivo, BALB/c mice. The procedure: Female 7-10 weeks old BALB/c mice were randomly allocated into 7 study groups one day prior to study start and subcutaneously (SC) sensitized to house dust mite (100 μg HDM in 200 μL saline plus Freunds complete adjuvant in 0.9% saline). Mice were then intranasally (IN) challenged with HDM on day 14 (HDM 25 μg in 50 μL of saline). […] The initial dose was administered 60 minutes prior to challenge, and the subsequent doses approximately 6 hours apart. Airway inflammation: At 48 hours post challenge, bronchoalveolar lavage was performed washing the lungs with 3 volumes of cold PBS (0.4; 0.3 and 0.3 mL, total 1 mL). Total and differential leucocyte cell counts were determined on an automated haematological analyser Sysmex XT-2000iV.

The subject of test [2] is Dextran Sodium Sulphate (DSS) induced colitis model. Put plainly: Acute 10-day DSS induced colitis model (Example 7). Conditions: Pred 1 mg/kg orally daily. Format: in vivo, mice. The procedure: To determine and assess the anti-inflammatory effect of “hBD-2-albumin fusion C-terminal” in an acute 10-day Dextran Sodium Sulphate (DSS) induced colitis model in mice.
“hBD-2-albumin C-terminal” was administered intravenously via the tail vein or subcutaneously with the use of a sterile 25G needle in a dosing volume of 10 ml/kg body weight. The animals received 1 dose daily for 10 […] days. The active control Prednisolone (Pred) was given orally by gavage at a dose of 1 mg/kg in a dosing volume of 10 ml/kg body weight OD.

Test [3] has as its system microbiota of the intestine. Put plainly: 16S microbiota analysis, prophylactic defensin treatment in high fat diet model (Example 10). Format: in vivo, mice. An excerpt:
Mice were housed in trios, 4 cages per group. Feed intake was registered daily just before lights were turned off at […]. Individual mice were subjected to experimental procedures in altered order both group and cage wise. Mice were kept at room temperature under a 12-hour light/dark cycle at SPF standard conditions. The treatment regime is described in FIG. 38. Mice were fed either a high fat diet (HFD) or a low fat (LF) control diet. The HFD contained 4 subgroups; 1 hBD2, 1 HD5, 1 hBD2/HD5 and 1 standard HFD without supplementation of defensins. Defensin concentration was 1.2 mg hBD2 per kg mouse per day. HD5 was given in equimolar concentration to hBD2. […] Microbial analyses were carried out to study the microbiota of the intestine. Longitudinal 16S characterization was conducted on 4 paired samples from 60 mice, 240 samples in total. Each mouse was sampled prior to diet change, 1 week post diet change, 4 weeks post diet change and at termination, thus ensuring a thorough characterization of the faecal microbiota as a result of defensin treatment.

Test [4] has as its system microbiota of the intestine. Put plainly: 16S microbiota analysis, interventional defensin treatment in diet-induced obese mice (Example 11). Format: in vivo. To be noted: intervention. The source says: The experiment elucidates the effect of hBD2 and HD5 on the microbiota in diet-induced obese mice. A run-in period of 13 weeks where mice were fed a very HFD (60% energy from fat) preceded the intervention. Only mice meeting the criteria of a minimum of 12 gram weight gain (approximately 50% of initial bodyweight) during the run-in period were included in the final analyses. […] They were exposed to all experimental tests, but excluded from the analyses.
Before the intervention all mice were MR scanned. Cages of mice were allocated to experimental groups based on their fat mass. All subsequent measures were paired with data from the same mouse before the intervention. A LFD (low fat diet) reference group was running in parallel. As controls for the intervention 2 additional groups were included: 1 very HFD and 1 LFD. Experimental mice stayed on the very HFD during the intervention. The mice were on the experimental diet for 10 weeks. They were co-housed throughout the experiment, 4 mice per cage, 3 cages per group. All tests ran over 3 days, 1 cage per group per day.
Microbial analyses were carried out to study the microbiota of the intestine. Longitudinal 16S characterization was conducted on 4 paired samples from 60 mice, 240 samples in total. Each mouse was sampled prior to diet change, 1 week post diet change, 4 weeks post diet change and at termination, thus ensuring a thorough characterization of the faecal microbiota as a result of defensin treatment.

`C[C@@H]1C[C@H]2[C@@H]3CCC4=CC(=O)C=C[C@]4(C)[C@@]3(F)[C@@H](O)C[C@]2(C)[C@@]1(O)C(=O)CO` [Dexamethasone, reference compound]: the “neutrophil count in BALF” value in test [1] was “failed to inhibit”.

With `C[C@]12C=CC(=O)C=C1CC[C@@H]1[C@@H]2[C@@H](O)C[C@@]2(C)[C@H]1CC[C@]2(O)C(=O)CO` [Pred, Prednisolone], in test [2], the “histological injury, proximal part of the colon” value is on record as “failed to significantly reduce”. For the same compound, the DAI result in test [2] (day 9, p<0.05) is listed as “significant inhibition”. In test [2] (p<0.01), the “histological injury, distal colon” value was “did reduce”.

In the case of “human intestinal alpha defensin 5 (ATCYCRTGRCATRESLSGVCEISGRLYRLCCR; listed as Homo sapiens) [HD5]”, in test [3] (1.2 mg hBD2 per kg per day in feed, HD5 equimolar, combination 50% + 50%), the “effect on microbial presence / microbial abundance” value was “affected primarily the microbial abundance”. In test [3] (prophylaxis, p<0.02), the “abundance of Allobaculum in the small intestine” value is on record as “statistically significant increase”. Moreover, the “abundance of Alloprevotella in the colon” value in test [4] (HD5 p<0.02) was “increased the abundance of Alloprevotella statistically significantly”. Further, the “relative abundance of Bifidobacteriaceae in the small intestine” value in test [4] (hBD2 p<0.0001) is “trend towards HD5 increasing the abundance”.
